Measured values from US8519149B2, “Tricyclic compounds as mPGES-1 inhibitors” (Glenmark Pharmaceuticals S.A., priority 2010, dated 2013).

Target: T1, Recombinant human mPGES-1 (Homo sapiens, UniProt O14684)
T1 sequence (O14684 1-152): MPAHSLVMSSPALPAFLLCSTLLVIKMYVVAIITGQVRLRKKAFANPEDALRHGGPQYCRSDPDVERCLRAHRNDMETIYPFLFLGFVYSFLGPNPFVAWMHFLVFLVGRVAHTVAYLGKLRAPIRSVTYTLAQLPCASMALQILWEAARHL
Assay: In-vitro mPGES-1 enzyme inhibition assay (PGE2 formation from PGH2, HTRF detection)
Format: biochemical
Details: for inhibition at 1 µM: 1 μM test compound, read-out: Percentage inhibition at 1 μM; for inhibition at 1 µM / inhibition at 10 µM: recombinant human mPGES-1 microsomal fraction; for inhibition at 10 µM: 10 μM test compound, read-out: Percentage inhibition at 10 μM; for IC50: class symbols, selected examples
Excerpt: In-Vitro Protocol for Screening of mPGES-1 Inhibitors: mPGES-1 (microsomal prostaglandin E synthase-1) is a microsomal enzyme that converts endoperoxide substrate PGH2 (prostaglandin H2) to product PGE2 (prostaglandin E2) by isomerization in the presence of reduced glutathione (GSH). mPGES-1 inhibitors were screened by assessing their ability to inhibit formation of PGE2 from PGH2 in presence of mPGES-1 using anti-PGE2 antibody based detection method. […] Assay was set up using crude microsomal fractions at protein concentration of 40-60 μg/mL. […] Final concentration of DMSO in reaction was 0.5% (v/v). Negative controls comprised of all assay reagents except the enzyme. Positive controls comprised of enzyme reaction in the absence of any inhibitor. […] Reaction was stopped by addition of Stannous chloride (11 mg/ml) and PGE2 levels were measured ([…] et al. […] Inhibition of mPGES-1 enzyme activity was measured using percent of reaction occurring in the positive control. Concentration response curves were plotted using percent inhibition of maximum enzyme reaction. IC50 value was calculated from concentration response curve by nonlinear regression analysis using GraphPad PRISM software.

| SMILES | inhibition at 1 µM | inhibition at 10 µM | IC50 |
| --- | --- | --- | --- |
| Cc1cc2c(o1)c(C(=O)NCC1CC1)cc1nc(Nc3c(Cl)cccc3Cl)[nH]c12 [Example-57, N-(Cyclopropylmethyl)-2-[(2,6-dichlorophenyl)amino]-7-methyl-1H-furo[3,2-e]benzimidazole-5-carboxamide] | 61.7% | 88.2% | – |
| CC1(C)Cc2c(c(C(=O)Nc3ccc(C(F)(F)F)cc3)cc3nc(Nc4ccc(F)cc4Cl)[nH]c23)O1 [Example-86, 2-[(2-Chloro-4-fluorophenyl)amino]-7,7-dimethyl-N-[4-(trifluoromethyl)phenyl]-7,8-dihydro-1H-furo[3,2-e]benzimidazole-5-carboxamide] | 95% | 98.7% | < 50 nM |
| Cc1cccc(Cl)c1Nc1nc2cc(C(=O)Nc3cc(C(F)F)ccc3F)c3c(c2[nH]1)CC(C)(C)O3 [Example-135, 2-((2-Chloro-6-methylphenyl)amino)-N-(5-(difluoromethyl)-2-fluorophenyl)-7,7-dimethyl-7,8-dihydro-1H-benzofuro[4,5-d]imidazole-5-carboxamide] | 97.5% | 98.6% | < 50 nM |
| CC1(C)CCCC(NC(=O)c2cc3nc(Nc4c(Cl)cncc4Cl)[nH]c3c3c2OC(C)(C)C3)C1 (stereo not drawn) [Example-14, 2-[(3,5-Dichloropyridin-4-yl)amino]-N-(3,3-dimethylcyclohexyl)-7,7-dimethyl-7,8-dihydro-1H-furo[3,2-e]benzimidazole-5-carboxamide] | 100% | 100% | < 50 nM |
| Cc1cccc(Cl)c1Nc1nc2cc(C(=O)Nc3ccc(F)c(C(F)(F)F)c3)c3c(c2[nH]1)CC(C)(C)O3 [Example-133, 2-((2-Chloro-6-methylphenyl)amino)-N-(4-fluoro-3-(trifluoromethyl)phenyl)-7,7-dimethyl-7,8-dihydro-1H-benzofuro[4,5-d]imidazole-5-carboxamide] | 91.4% | 96.5% | < 50 nM |
| Cc1ccc(Cl)c(Nc2nc3cc(C(=O)Nc4ccccc4C(F)(F)F)c4c(c3[nH]2)CC(C)(C)O4)c1 [Example-97, 2-[(2-Chloro-5-methylphenyl)amino]-7,7-dimethyl-N-[2-(trifluoromethyl)phenyl]-7,8-dihydro-1H-furo[3,2-e]benzimidazole-5-carboxamide] | 96.7% | 95.3% | < 50 nM |
| COCCn1c(Nc2c(Cl)cccc2Cl)nc2cc(C(=O)Nc3ccccc3C(F)(F)F)c3c(c21)CC(C)(C)O3 [Example-100, 2-[(2,6-Dichlorophenyl)amino]-1-(2-methoxyethyl)-7,7-dimethyl-N-[2-(trifluoromethyl)phenyl]-7,8-dihydro-1H-furo[3,2-e]benzimidazole-5-carboxamide] | 96.6% | 95.6% | < 50 nM |
| CC1(C)Cc2c(c(C(=O)Nc3ccc(C#N)cc3)cc3nc(Nc4c(Cl)cccc4Cl)[nH]c23)O1 [Example-59, N-(4-Cyanophenyl)-2-[(2,6-dichlorophenyl)amino]-7,7-dimethyl-7,8-dihydro-1H-furo[3,2-e]benzimidazole-5-carboxamide] | 96.8% | 98.1% | < 50 nM |
| CC1(C)Cc2c(c(C(=O)Nc3ccc(Br)cc3)cc3nc(Nc4c(Cl)cncc4Cl)[nH]c23)O1 [Example-8, N-(4-Bromophenyl)-2-[(3,5-dichloropyridin-4-yl)amino]-7,7-dimethyl-7,8-dihydro-1H-furo[3,2-e]benzimidazole-5-carboxamide] | 92.6% | 90.1% | < 50 nM |
| Cc1cc2c(o1)c(C(=O)NCC1CCCCC1)cc1nc(Nc3c(F)cccc3Cl)[nH]c12 [Example-49, 2-[(2-Chloro-6-fluorophenyl)amino]-N-(cyclohexylmethyl)-7-methyl-1H-furo[3,2-e]benzimidazole-5-carboxamide] | 91.6% | 96.1% | – |
| Cc1ccc(NC(=O)c2cc3nc(Nc4c(Cl)cccc4Cl)[nH]c3c3c2OC(C)(C)C3)c(F)c1 [Example-142, 2-((2,6-Dichlorophenyl)amino)-N-(2-fluoro-4-methylphenyl)-7,7-dimethyl-7,8-dihydro-1H-benzofuro[4,5-d]imidazole-5-carboxamide] | 97.9% | 97.5% | < 50 nM |
| CC1(C)Cc2c(c(C(=O)Nc3ccc(OCC4CC4)nc3)cc3nc(Nc4c(F)cccc4Cl)[nH]c23)O1 [Example-125, 2-[(2-Chloro-6-fluorophenyl)amino]-N-[6-(cyclopropylmethoxy)pyridin-3-yl]-7,7-dimethyl-7,8-dihydro-1H-furo[3,2-e]benzimidazole-5-carboxamide] | 10.6% | 76.7% | – |
| CC1(C)Cc2c(c(C(=O)Nc3cc(C(F)(F)F)ccc3F)cc3nc(Nc4c(Cl)cncc4Cl)[nH]c23)O1 [Example-195, 2-((3,5-Dichloropyridin-4-yl)amino)-N-(2-fluoro-5-(trifluoromethyl)phenyl)-7,7-dimethyl-7,8-dihydro-1H-benzofuro[4,5-d]imidazole-5-carboxamide] | 98.8% | 99% | < 50 nM |
| CC1(C)Cc2c(c(C(=O)Nc3ccccc3C(F)(F)F)cc3nc(Nc4c(F)cccc4Cl)[nH]c23)O1 [Example-77, 2-[(2-Chloro-6-fluorophenyl)amino]-7,7-dimethyl-N-[2-(trifluoromethyl)phenyl]-7,8-dihydro-1H-furo[3,2-e]benzimidazole-5-carboxamide] | 93.1% | 89.9% | < 50 nM |
| CN(C)CCNC(=O)c1cc2nc(Nc3c(Cl)cccc3Cl)[nH]c2c2c1OC(C)(C)C2 [Example-61, 2-[(2,6-Dichlorophenyl)amino]-N-[2-(dimethylamino)ethyl]-7,7-dimethyl-7,8-dihydro-1H-furo[3,2-e]benzimidazole-5-carboxamide] | 6.5% | 69.8% | – |
| CC1(C)Cc2c(c(C(=O)Nc3ccc(C(F)(F)F)cc3)cc3nc(Nc4ccc(Cl)cc4Cl)[nH]c23)O1 [Example-91, 2-[(2,4-Dichlorophenyl)amino]-7,7-dimethyl-N-[4-(trifluoromethyl)phenyl]-7,8-dihydro-1H-furo[3,2-e]benzimidazole-5-carboxamide] | 43.9% | 60.2% | – |
| CC1(C)Cc2c(c(C(=O)Nc3cc(F)c(F)cc3F)cc3nc(Nc4c(Cl)cccc4Cl)[nH]c23)O1 [Example-141, 2-((2,6-Dichlorophenyl)amino)-7,7-dimethyl-N-(2,4,5-trifluorophenyl)-7,8-dihydro-1H-benzofuro[4,5-d]imidazole-5-carboxamide] | 96.4% | 98.6% | < 50 nM |
| COc1cc(OC)cc(-c2noc(-c3cc4nc(Nc5c(Cl)cccc5Cl)[nH]c4c4c3OC(C)(C)C4)n2)c1 [Example-162, N-(2,6-Dichlorophenyl)-5-(3-(3,5-dimethoxyphenyl)-1,2,4-oxadiazol-5-yl)-7,7-dimethyl-7,8-dihydro-1H-benzofuro[4,5-d]imidazol-2-amine] | 62.3% | 80.8% | – |
